From patent publication US11407748B2, “Substituted pyrido[1,2-a]pyrimidines and pyrazino[1,2-a]pyrimidines for enhancing AMPA receptor function” (Takeda Pharmaceutical Company Limited, priority 2017, dated 2022)

Target: T1, hGluR1 flip (Homo sapiens, UniProt P42261)
T1 construct: expressed in transfected cells; host or cells: CHO-K1
Assay: AMPA receptor function-enhancing activity using calcium influx as index
Format: cell-based
Details: test compound 30 μM with 3 mM glutamic acid; CHO-K1/GluR1 flip/stargazin-expressing cells; 100% = 3 mM glutamic acid + 300 μM cyclothiazide, 0% = 3 mM glutamic acid alone
Description: Experimental Example 1 Measurement Method of AMPA Receptor Function-Enhancing Activity of Compound Using Calcium Influx as Index
(1) Construction of Expression Gene
Human GluR^1 flip cDNA was amplified by PCR method using forward primer […] (SEQ ID NO: 1) and reverse primer […] (SEQ ID NO: 2) artificially synthesized using human brain-derived cDNA (BD Bioscience) as a template. The amplified product was digested with restriction enzymes EcoRI, NotI (TAKARA SHUZO CO. LTD.) and incorporated into the same site of pcDNA3.1 (+) (Invitrogen) to construct pcDNA3.1(+)/human GluR1 flip gene. Human stargazin cDNA was amplified by PCR method using forward primer […] (SEQ ID NO: 3) and reverse primer […] (SEQ ID NO: 4) artificially synthesized using human hippocampus cDNA as a template. The amplified product was digested with restriction enzymes XhoI, BamHI (TAKARA SHUZO CO. LTD.) and incorporated into the same site of pcDNA3.1(−) (Invitrogen) to construct pcDNA3.1 Zeo(−)/human stargazing gene.
(2) Construction of GluR1 Flip/Stargazin Expressing Cell
CHO-K1 cells passaged in a culture medium (Ham's F12 medium (Invitrogen) added with 10% inactivated fetal bovine serum (Morgate) and penicillin, streptomycin (Invitrogen)) were detached using 0.05% trypsin and 0.53 mM EDTA (Invitrogen) diluted with D-PBS(−). The detached cells were suspended in a culture medium, and recovered by centrifugation at 1,000 rpm. The recovered cells were re-suspended in D-PBS(−) and added into 0.4 cm electroporation cuvette (BioRad). pcDNA3.1(+)/human GluR1 flip gene (5 μg) and pcDNA3.1 Zeo(−)/human stargazin gene (15 μg) were added, and introduced into CHO-K1 cells under the conditions of 950 μFd, […] and using Gene Pulser II (BioRad). The introduced cells were cultured overnight in a culture medium. The next day, using a selection medium (culture medium added with zeocin (Invitrogen) at 250 μg/mL), the cells were plated in a 96 well plate at 250 cells/well. The clones showing drug resistance were selected, and GluR1 flip/stargazin expression clones were selected by an assay method shown below using calcium influx as an index.
(3) Measurement Method of AMPA Receptor Function-Enhancing Activity of Compound, Using Calcium Influx as an Index
CHO-K1/GluR1 flip/stargazin-expressing cells were plated on a 384 well black bottom transparent plate, and cultured for 2 days in a CO2 incubator (SANYO ELECTRIC Co. Ltd.) at 37° C. The medium of the cell plate was removed. A calcium indicator (Calcium5 Assay Kit, Molecular Devices) was diluted with an assay buffer (HESS (Thermo Fisher Scientific), 0.1% BSA (Merck Millipoer) and 10 mM HEPES (Thermo Fisher Scientific)), and 1.25 mM probenecid (Dojindo Laboratories) was added thereto. The mixture prepared above was added at 30 μL/well (100 μL/well in case of 96 wells) to the well, and the well was left standing in 37° C., CO2 incubator for 1 hr. The cell plate was set in CellLux (PerkinElmer), a mixture (15 μL) (50 μL/well in case of 96 wells) of 9 mM glutamic acid (final concentration 3 mM) diluted with an assay buffer and a test compound (test compound concentration 30 μM) was added thereto, and variation in the amount of fluorescence was measured for 3 min. The variation of fluorescence level of a well added with final concentration 3 mM of glutamic acid and 300 μM cyclothiazide (TOCRIS) was defined as 100%, the variation of fluorescence level of a well added with final concentration 3 mM of glutamic acid alone was defined as 0%, and the activity of the compound was calculated by the following formula. activity (%)=(X−C)/(T−C)×100 • T: variation of fluorescence level of well added with final concentration 3 mM of glutamic acid and 300 μM cyclothiazide • C: variation of fluorescence level of well added with final concentration 3 mM of glutamic acid alone • X: variation of fluorescence level of well added with test compound

T1 sequence (P42261 19-906 isoform P42261-2 limits assumed): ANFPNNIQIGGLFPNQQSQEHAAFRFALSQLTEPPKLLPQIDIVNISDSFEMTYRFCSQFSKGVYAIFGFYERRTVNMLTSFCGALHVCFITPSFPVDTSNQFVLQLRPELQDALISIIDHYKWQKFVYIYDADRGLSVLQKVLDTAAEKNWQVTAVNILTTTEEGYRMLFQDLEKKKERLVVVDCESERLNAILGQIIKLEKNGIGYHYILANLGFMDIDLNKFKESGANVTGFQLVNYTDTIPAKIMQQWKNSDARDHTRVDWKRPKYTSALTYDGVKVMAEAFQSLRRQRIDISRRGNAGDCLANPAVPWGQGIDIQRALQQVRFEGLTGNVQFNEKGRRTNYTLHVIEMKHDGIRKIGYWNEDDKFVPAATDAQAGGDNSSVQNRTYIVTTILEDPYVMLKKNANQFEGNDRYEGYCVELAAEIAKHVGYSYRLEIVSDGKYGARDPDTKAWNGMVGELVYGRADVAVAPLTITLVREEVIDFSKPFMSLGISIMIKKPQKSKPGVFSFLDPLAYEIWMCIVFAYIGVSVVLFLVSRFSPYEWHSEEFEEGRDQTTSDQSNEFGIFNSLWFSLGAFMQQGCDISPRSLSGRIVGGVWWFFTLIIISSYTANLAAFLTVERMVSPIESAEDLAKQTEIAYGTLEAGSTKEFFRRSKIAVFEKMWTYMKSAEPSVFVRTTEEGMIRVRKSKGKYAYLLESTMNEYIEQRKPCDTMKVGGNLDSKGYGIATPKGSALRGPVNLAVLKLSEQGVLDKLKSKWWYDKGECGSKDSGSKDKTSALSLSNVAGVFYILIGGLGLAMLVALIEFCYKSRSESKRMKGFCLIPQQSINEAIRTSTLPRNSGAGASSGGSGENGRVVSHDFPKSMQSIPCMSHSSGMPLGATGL
T1 sequence (Q9Y698 whole entry partner): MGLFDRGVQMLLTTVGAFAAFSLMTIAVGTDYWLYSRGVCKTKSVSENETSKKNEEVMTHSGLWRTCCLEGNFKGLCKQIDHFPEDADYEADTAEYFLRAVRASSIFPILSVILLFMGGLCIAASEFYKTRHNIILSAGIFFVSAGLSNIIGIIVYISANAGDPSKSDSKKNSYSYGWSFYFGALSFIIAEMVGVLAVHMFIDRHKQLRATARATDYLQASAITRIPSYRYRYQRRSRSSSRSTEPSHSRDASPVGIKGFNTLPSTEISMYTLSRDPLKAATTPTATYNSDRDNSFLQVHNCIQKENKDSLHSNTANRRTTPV

**Q.** How did the activation at 30 µM turn out when O=C(c1ccc(-c2cccn3c(=O)cc(C(F)(F)F)nc23)cc1)N1CCCC(F)(F)C1 [Example 3, 9-(4-((3,3-difluoropiperidin-1-yl)carbonyl)phenyl)-2-(trifluoromethyl)-4H-pyrido[1,2-a]pyrimidin-4-one] was run?
**A.** 74.8%

**Q.** For Cc1c(C(F)(F)F)nc2c(-c3ccc(C(=O)N4CCC(C#N)C4)cc3)cccn2c1=O (centres unmarked) [Example 121, 1-(4-(3-methyl-4-oxo-2-(trifluoromethyl)-4H-pyrido[1,2-a]pyrimidin-9-yl)benzoyl)pyrrolidine-3-carbonitrile], which activation at 30 µM is on record?
**A.** 84.4%

**Q.** With CCN(CCC#N)C(=O)c1ccc(-c2cccn3c(=O)c(Br)c(C(F)(F)F)nc23)cc1 [Example 25, 4-(3-bromo-4-oxo-2-(trifluoromethyl)-4H-pyrido[1,2-a]pyrimidin-9-yl)-N-(2-cyanoethyl)-N-ethylbenzamide] as the compound, how does the activation at 30 µM read?
**A.** 91%

**Q.** How did the activation at 30 µM turn out when O=C(c1ccc(-c2cccn3c(=O)cc(C(F)(F)F)nc23)cc1)N1CCCC(O)(C(F)(F)F)C1 (centres unmarked) [Example 36, 9-(4-((3-hydroxy-3-(trifluoromethyl)piperidin-1-yl)carbonyl)phenyl)-2-(trifluoromethyl)-4H-pyrido[1,2-a]pyrimidin-4-one] was run?
**A.** 101%

**Q.** For CC1(O)CCN(C(=O)c2ccc(-c3cccn4c(=O)cc(C(F)(F)F)nc34)cc2)CC1 [Example 7, 9-(4-((4-hydroxy-4-methylpiperidin-1-yl)carbonyl)phenyl)-2-(trifluoromethyl)-4H-pyrido[1,2-a]pyrimidin-4-one], which activation at 30 µM is on record?
**A.** 94%

**Q.** With CN(C(=O)c1ccc(-c2cccn3c(=O)c(Br)c(C(F)(F)F)nc23)cc1F)C1CCOCC1 [Example 84, 4-(3-bromo-4-oxo-2-(trifluoromethyl)-4H-pyrido[1,2-a]pyrimidin-9-yl)-2-fluoro-N-methyl-N-(tetrahydro-2H-pyran-4-yl)benzamide] as the compound, how does the activation at 30 µM read?
**A.** 102%

**Q.** How did the activation at 30 µM turn out when Cc1c(C(F)(F)F)nc2c(-c3ccc(C(=O)N4CCOC(C(F)F)C4)cc3)cccn2c1=O (centres unmarked) [Example 23, 9-(4-((2-(difluoromethyl)morpholin-4-yl)carbonyl)phenyl)-3-methyl-2-(trifluoromethyl)-4H-pyrido[1,2-a]pyrimidin-4-one] was run?
**A.** 83.5%

**Q.** How did the activation at 30 µM turn out when CO[C@@H]1CCN(C(=O)c2ccc(-c3cccn4c(=O)c(Br)c(C(F)(F)F)nc34)cc2F)C1 [Example 91, 3-bromo-9-(3-fluoro-4-(((3R)-3-methoxypyrrolidin-1-yl)carbonyl)phenyl)-2-(trifluoromethyl)-4H-pyrido[1,2-a]pyrimidin-4-one] was run?
**A.** 80.9%

**Q.** Which activation at 30 µM does the source give for CCN(C(=O)c1ccc(-c2cccn3c(=O)c(Br)c(C(F)(F)F)nc23)cc1F)C1CC1 [Example 95, 4-(3-bromo-4-oxo-2 (trifluoromethyl)-4H-pyrido[1,2 a]pyrimidin-9-yl)-N-cyclopropyl-N-ethyl-2-fluorobenzamide] here?
**A.** 83.2%

**Q.** Which activation at 30 µM does the source give for CN(CC1(C#N)CC1)C(=O)c1ccc(-c2cccn3c(=O)c(Br)c(C(F)(F)F)nc23)cc1 [Example 118, 4-(3-bromo-4-oxo-2-(trifluoromethyl)-4H-pyrido[1,2-a]pyrimidin-9-yl)-N-((1-cyanocyclopropyl)methyl)-N-methylbenzamide] here?
**A.** 84%

**Q.** How did the activation at 30 µM turn out when COC1CCN(C(=O)c2ccc(-c3cccn4c(=O)c(C)c(C(F)(F)F)nc34)cc2F)CC1 [Example 87, 9-(3-fluoro-4-((4-methoxypiperidin-1-yl)carbonyl)phenyl)-3-methyl-2-(trifluoromethyl)-4H-pyrido[1,2-a]pyrimidin-4-one] was run?
**A.** 101%

**Q.** With Cc1c(C(F)(F)F)nc2c(-c3ccc(C(=O)N(C)C4CCOCC4)c(F)c3)cccn2c1=O [Example 83, 2-fluoro-N-methyl-4-(3-methyl-4-oxo-2-(trifluoromethyl)-4H-pyrido[1,2-a]pyrimidin-9-yl)-N-(tetrahydro-2H-pyran-4-yl)benzamide] as the compound, how does the activation at 30 µM read?
**A.** 103%

**Q.** Cc1c(C(F)(F)F)nc2c(-c3ccc(C(=O)N4CC(F)(F)C4)c(F)c3)cccn2c1=O [Example 129, 9-(4-((3,3-difluoroazetidin-1-yl)carbonyl)-3-fluorophenyl)-3-methyl-2-(trifluoromethyl)-4H-pyrido[1,2-a]pyrimidin-4-one] was tested. Which activation at 30 µM did it give?
**A.** 80.4%

**Q.** For O=C(c1ccc(-c2cccn3c(=O)c(Br)c(C(F)(F)F)nc23)cc1)N1CCOC(C(F)F)C1 (centres unmarked) [Example 114, 3-bromo-9-(4-((2-(difluoromethyl)morpholin-4-yl)carbonyl)phenyl)-2-(trifluoromethyl)-4H-pyrido[1,2-a]pyrimidin-4-one], which “hGluR1 flip/30 μM (%)” value is on record?
**A.** 77.2%

**Q.** How did the activation at 30 µM turn out when O=C(c1ccc(-c2cccn3c(=O)c(Br)c(C(F)(F)F)nc23)cc1F)N1CCc2cccnc21 [Example 79, 3-bromo-9-(4-(2,3-dihydro-1H-pyrrolo[2,3-b]pyridin-1-ylcarbonyl)-3-fluorophenyl)-2-(trifluoromethyl)-4H-pyrido[1,2-a]pyrimidin-4-one] was run?
**A.** 79.6%

**Q.** Which “hGluR1 flip/30 μM (%)” value does the source give for O=C(c1ccc(-c2cccn3c(=O)cc(C(F)(F)F)nc23)cc1)N1CCC(O)(C(F)(F)F)C1 (centres unmarked) [Example 6, 9-(4-((3-hydroxy-3-(trifluoromethyl)pyrrolidin-1-yl)carbonyl)phenyl)-2 (trifluoromethyl)-4H-pyrido[1,2-a]pyrimidin-4-one] here?
**A.** 88.7%

**Q.** How did the activation at 30 µM turn out when O=C(NCC(F)F)c1ccc(-c2cccn3c(=O)cc(C(F)(F)F)nc23)cc1 [Example 26, N-(2,2-difluoroethyl)-4-(4-oxo-2-(trifluoromethyl)-4H-pyrido[1,2-a]pyrimidin-9-yl)benzamide] was run?
**A.** 74.9%

**Q.** How did the activation at 30 µM turn out when COCCNC(=O)c1ccc(-c2cccn3c(=O)c(Br)c(C(F)(F)F)nc23)cc1F [Example 72, 4-(3-bromo-4-oxo-2-(trifluoromethyl)-4H-pyrido[1,2-a]pyrimidin-9-yl)-2-fluoro-N-(2-methoxyethyl)benzamide] was run?
**A.** 76.4%

**Q.** Which “hGluR1 flip/30 μM (%)” value does the source give for Cc1c(C(F)(F)F)nc2c(-c3ccc(C(=O)N4CCOC(C(F)F)C4)cc3)cccn2c1=O (centres unmarked) [Example 107, 9-(4-((2-(difluoromethyl)morpholin-4-yl)carbonyl)phenyl)-3-methyl-2-(trifluoromethyl)-4H-pyrido[1,2-a]pyrimidin-4-one] here?
**A.** 86%

**Q.** For O=C(NC1CCOCC1)c1ccc(-c2cccn3c(=O)cc(C(F)(F)F)nc23)cc1 [Example 123, 4-(4-oxo-2-(trifluoromethyl)-4H-pyrido[1,2-a]pyrimidin-9-yl)-N-(tetrahydro-2H-pyran-4-yl)benzamide], which activation at 30 µM is on record?
**A.** 83.2%

**Q.** O=C(c1ccc(-c2cccn3c(=O)c(Br)c(C(F)(F)F)nc23)cc1)N1CCCC1 [Example 62, 3-bromo-9-(4-(pyrrolidin-1-ylcarbonyl)phenyl)-2-(trifluoromethyl)-4H-pyrido[1,2-a]pyrimidin-4-one] was tested. Which activation at 30 µM did it give?
**A.** 76.9%

**Q.** With CN(C(=O)c1ccc(-c2cccn3c(=O)c(Br)c(C(F)(F)F)nc23)cc1F)C1CC1 [Example 94, 4-(3-bromo-4-oxo-2-(trifluoromethyl)-4H-pyrido[1,2-a]pyrimidin-9-yl)-N-cyclopropyl-2-fluoro-N-methylbenzamide] as the compound, how does the activation at 30 µM read?
**A.** 94.4%

**Q.** CC1(O)CCN(C(=O)c2ccc(-c3cccn4c(=O)cc(C(F)(F)F)nc34)cc2)C1 (centres unmarked) [Example 28, 9-(4-((3-hydroxy-3-methylpyrrolidin-1-yl)carbonyl)phenyl)-2-(trifluoromethyl)-4H-pyrido[1,2-a]pyrimidin-4-one] was tested. Which activation at 30 µM did it give?
**A.** 79.3%
